Data taken from PMC8651387, “Synthesis and Evaluation of the Acetylcholinesterase Inhibitory Activities of Some Flavonoids Derived from Naringenin” (The Scientific World Journal, 2021).
“And” between values parts separate entries of the source, which are not always exact repeats. Equal values may be shown once. Read-outs that look alike come from different tables or passages of the source.

Legend:
AChE = AChE (Homo sapiens, UniProt P22303); assay: biochemical; settings: for IC50: pH 8, 25°C, triplicate
[1] = Solubility in water and solvents (compound description)
[2] = AChE 0.25 UI/mL, read-out: IC50

Sequence of AChE (P22303 32-614): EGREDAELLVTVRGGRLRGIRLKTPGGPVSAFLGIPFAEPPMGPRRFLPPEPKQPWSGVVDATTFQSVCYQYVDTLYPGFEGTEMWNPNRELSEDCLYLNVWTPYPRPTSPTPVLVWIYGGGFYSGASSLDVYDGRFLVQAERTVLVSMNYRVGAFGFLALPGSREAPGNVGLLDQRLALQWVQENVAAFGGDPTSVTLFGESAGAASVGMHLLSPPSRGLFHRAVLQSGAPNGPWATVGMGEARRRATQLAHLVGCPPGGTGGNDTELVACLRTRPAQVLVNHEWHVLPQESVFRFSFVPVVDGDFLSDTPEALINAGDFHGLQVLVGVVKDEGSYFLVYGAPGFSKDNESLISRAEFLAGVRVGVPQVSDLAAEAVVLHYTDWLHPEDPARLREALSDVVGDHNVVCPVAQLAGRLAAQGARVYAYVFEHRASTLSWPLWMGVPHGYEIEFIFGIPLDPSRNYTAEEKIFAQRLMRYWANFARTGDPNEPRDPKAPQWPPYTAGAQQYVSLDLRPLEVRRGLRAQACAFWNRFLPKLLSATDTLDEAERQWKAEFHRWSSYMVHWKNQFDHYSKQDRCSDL

| Structure (SMILES) | IC50 (AChE; IC50, AChE 0.25 UI/mL) | Solubility in acetone [1] | Solubility in dichloromethane [1] | Solubility in methanol [1] | Solubility in water [1] | AChE inhibitory activity (in words) (AChE) | IC50 (AChE; [2]) |
| --- | --- | --- | --- | --- | --- | --- | --- |
| COc1ccc(/C=C/C(=O)c2c(OC)cc(OC)cc2OC)cc1 [Compound 3, (E)-2′,4,4′,6′-Tetramethoxychalcone] | > 100 µM | soluble | highly soluble | sparingly soluble | insoluble | – | – |
| COc1cc(O)c2c(c1)OC(c1ccc(O)cc1)CC2=O (stereo not drawn) [Compound 1, 4′,5-Dihydroxy-7-methoxyflavanone] | > 100 µM | – | – | – | – | – | – |
| C=CCOc1ccc(/C=C/C(=O)c2c(O)cc(OCC=C)cc2OCC=C)cc1 [Compound 7, (E)-2′,4,4′-Triallyloxy-6′-hydroxychalcone] | – | soluble | highly soluble | sparingly soluble | insoluble | improved activities over naringenin | < 100 µM and 13 µM |
| C=CCOc1cc(O)c2c(c1)OC(c1ccc(O)cc1)CC2=O (stereo not drawn) [Compound 5, 7-Allyloxy-4′,5-dihydroxyflavanone] | – | highly soluble | sparingly soluble | sparingly soluble | insoluble | improved activities over naringenin | < 100 µM and 48.4 µM |
| O=C1C[C@@H](c2ccc(O)cc2)Oc2cc(O)cc(O)c21 [Naringenin] | 150 ± 4.6 µM | – | – | – | – | – | – |
| O=C(/C=C/c1ccc(OCc2ccccc2)cc1)c1c(O)cc(OCc2ccccc2)cc1OCc1ccccc1 [Compound 8, (E)-2′,4,4′-Tribenzyloxy-6′-hydroxychalcone] | – | soluble | soluble | insoluble | insoluble | – | > 100 µM |
| COc1ccc(C2CC(=O)c3c(O)cc(OC)cc3O2)cc1 (stereo not drawn) [Compound 2, 5-Hydroxy-4′,7-dimethoxyflavanone] | – | soluble | highly soluble | sparingly soluble | insoluble | improved activities over naringenin | < 100 µM and 75 µM |
| C=CCOc1ccc(C2CC(=O)c3c(O)cc(OCC=C)cc3O2)cc1 (stereo not drawn) [Compound 6, 4′,7-Diallyloxy-5-hydroxyflavanone] | – | soluble | highly soluble | sparingly soluble | insoluble | negligible biological effects | > 100 µM |
| CCOc1ccc(/C=C/C(=O)c2c(O)cc(OCC)cc2OCC)cc1 [Compound 4, (E)-2′,4,4′-Triethoxy-6′-hydroxychalcone] | – | soluble | highly soluble | slightly soluble | insoluble | improved activities over naringenin | < 100 µM and 39.8 µM |
| O=C(/C=C/c1ccc(OCc2ccccc2)cc1)c1c(OCc2ccccc2)cc(OCc2ccccc2)cc1OCc1ccccc1 [Compound 9, (E)-2′,4,4′,6′-Tetrabenzyloxychalcone] | – | soluble | highly soluble | slightly soluble | insoluble | negligible biological effects | > 100 µM |
